With `CC(=O)Nc1cc2c(cc1[N+](=O)[O-])OC(C)(C)[C@@H](O)[C@@H]2OCCc1ccccc1` (relative stereo) [Synthesis example 2, Trans-6-acetylamino-3,4-dihydro-2,2-dimethyl-7-nitro-4-(2-phenylethoxy)-2H-1-benzopyran-3-ol], the melting point (in general, the temperature, or range, at which the solid turns liquid) was in the range of 123.5 to 127 °C.
